In the test the target is T1, BgaL; Paracoccus sp. 32d β-D-galactosidase (Paracoccus sp. 32d, UniProt D1LZK0).
T1 construct: E. coli LMG194, pBAD/Myc-His A with native stop codon (no tag), ion exchange purified; homodimer 161 kDa; GH2
T1 sequence (D1LZK0 1-731): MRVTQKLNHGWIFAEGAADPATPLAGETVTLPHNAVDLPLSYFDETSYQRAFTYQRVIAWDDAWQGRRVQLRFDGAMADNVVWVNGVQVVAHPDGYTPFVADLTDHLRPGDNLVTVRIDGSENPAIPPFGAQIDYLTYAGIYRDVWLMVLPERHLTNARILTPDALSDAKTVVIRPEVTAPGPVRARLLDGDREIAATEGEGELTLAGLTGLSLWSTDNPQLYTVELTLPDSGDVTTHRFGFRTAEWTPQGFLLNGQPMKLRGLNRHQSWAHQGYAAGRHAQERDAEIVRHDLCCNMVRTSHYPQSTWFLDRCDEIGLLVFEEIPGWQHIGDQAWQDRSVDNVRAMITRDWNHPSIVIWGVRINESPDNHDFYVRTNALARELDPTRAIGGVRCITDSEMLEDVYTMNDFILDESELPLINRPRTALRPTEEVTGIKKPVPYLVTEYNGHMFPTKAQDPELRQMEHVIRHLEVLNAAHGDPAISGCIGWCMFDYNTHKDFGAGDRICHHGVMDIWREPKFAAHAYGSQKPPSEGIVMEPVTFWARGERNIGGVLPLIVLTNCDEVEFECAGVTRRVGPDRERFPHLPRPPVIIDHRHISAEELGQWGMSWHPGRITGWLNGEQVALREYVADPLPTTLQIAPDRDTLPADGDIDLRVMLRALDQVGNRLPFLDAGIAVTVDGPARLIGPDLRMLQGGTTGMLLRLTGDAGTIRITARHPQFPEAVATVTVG
In words: relative activity with added sugar. Type of test: biochemical.

The results in this text go back to PMC3268748, “A novel cold-active β-D-galactosidase from the Paracoccus sp. 32d - gene cloning, purification and characterization” (Microbial Cell Factories, 2011).

Like-named read-outs stand apart in the source and are kept apart here.

As for `OC[C@H]1OC(O)[C@H](O)[C@@H](O)[C@@H]1O` (some centres unmarked) [glucose], the activity at 100000 µM (read-out: Relative activity (%) / Glucose) is 38 ± 2%.
Turning to `OC[C@H]1OC(O)[C@H](O)[C@@H](O)[C@H]1O` (some centres unmarked) [galactose], the activity at 100000 µM (read-out: Relative activity (%) / Galactose) turned out to be 52 ± 1%.
